The results in this text go back to a melting point compilation (Tetko et al.; mined from patent text by program, amines drawn as free bases though some values may be those of a salt).

The structures appear in SMILES notation.

In the case of `CN1CCN(c2c(F)c(NCc3ccccc3)c3c(c2F)n2c(=O)n(OCc4ccccc4)c(=O)cc2n3C2CC2)CC1`, the melting point – broadly, the temperature, or range, at which the solid turns liquid – is 214 °C.

The compound `CCC1COC(c2ccc(C#N)c(F)c2)OC1` (stereo not given) came in with a melting point of 49 °C.

Consider `COc1ccc(C(C)C(=O)O)cc1[N+](=O)[O-]` (stereo not given), for which the melting point lay in the range of 89 to 90 °C.

Compound `COc1ccsc1C1OC(=O)NC1=O` (stereo not given) displayed a melting point of 156 to 158 °C.

In the case of `CCc1nc(C)cn1CC1CC2c3cccc4[nH]cc(c34)CC2N(C)C1` (stereo not given), the melting point was 172 to 174 °C.

Compound `CCN1CCC(=O)N(c2ccc(Cl)cc2C)C1=S` gave a melting point of 133 to 136 °C.

`COc1cccc(CNC(=O)c2c(-c3ccc(F)cc3)c(-c3ccc(F)cc3)c(C=O)n2C(C)C)c1` yielded a melting point of 167 to 168 °C.

Turning to `Cc1[nH]cnc1/C=C1\CCCc2c(c3ccccc3n2C)C1=O`, the melting point is 230 to 232 °C.

`CCOC(=O)C1=C(C)NC(O)(C(F)(F)F)C(C(=O)OCC)C1c1cccc([N+](=O)[O-])c1` (stereo not given) showed a melting point of 120 to 121 °C.

Consider `COc1ccc(-c2ccc(Br)cc2[N+](=O)[O-])cc1`, for which the melting point is 130 to 131 °C.

In the case of `COC(=O)c1ccc(O)c(C(=O)CC(=O)c2cccnc2)c1`, the melting point was in the range of 200 to 202 °C.

As to `CCCn1nc(O)c2cc(Cl)c(Cl)cc2c1=O`, the melting point was 223 °C.

As to `NC(=O)C(c1ccc(F)c(F)c1)c1ccccn1` (racemic), the melting point fell in the range of 123 to 124 °C.

In the case of `CC(C)N1C(=O)c2ccccc2C1CC(C)(C)O` (stereo not given), the melting point is 82 to 84 °C.

`CCC(CNC(=O)OC(C)(C)C)n1cnc2c(N)nc3ccccc3c21` (stereo not given) had a melting point of 171 to 173 °C.

Turning to `Cc1noc(-c2cccc(C3=Nc4ccc(-c5ccc(F)cc5)cc4NC(=O)C3)c2)n1`, the melting point lay in the range of 266 to 268 °C.

Compound `CCOc1nc(=O)n(C(=O)NCCCl)s1` yielded a melting point of 82 °C.

On to `CS(=O)(=O)c1ccc(-n2nc(C(=O)O)cc2-c2ccc(-c3ccco3)cc2)cc1F`, for which the melting point was in the range of 172 to 173 °C.

`CCCCC1(N2CCCC2)CCC(c2[nH]c3ccccc3c2CCc2ccncc2)CC1` (stereo not given) showed a melting point of 165 to 175 °C.

The compound `CCCCc1nc(Cl)c(Cl)[nH]1` came in with a melting point of 122 to 123 °C.

The compound `CCN(CC)C(=O)Cc1cc(C(C)C)c(O)cc1C` yielded a melting point of 138 to 139 °C.

As for `O=C(CC[N+](=O)[O-])c1ccccc1`, the melting point lay within 59 to 62 °C.

`O=C1OCCC12Sc1ccccc1C2=O` (stereo not given) registered a melting point of 125 to 127 °C.

As for `CCOC(=O)CN=C(c1ccccc1)c1ccccc1NC1CCN(C)CC1`, the melting point was 102 to 103 °C.

Compound `CCC1(O)CC(=O)OCc2c1cc1n(c2=O)Cc2c-1nc1ccccc1c2CC[Si](C)(C)C` (stereo not given) gave a melting point of more than 250 °C.

The compound `N=C(Nc1ccccc1-c1ccccc1)C1CCCCC1` displayed a melting point of 148 to 150 °C.

Compound `COC(=O)c1ccc2c(c1SCCCl)Cc1ccccc1CO2` registered a melting point of 100 °C.

In turn, `CCOC(=O)C(=O)CC(=O)c1cn(Cc2ccc(OC)cc2)c2ccccc2c1=O` yielded a melting point of 154 to 156 °C.

`COC(=O)C1(S(=O)(=O)N2CCC(c3ccc(Br)c(C)c3)CC2)CCOCC1` gave a melting point of 162 to 163 °C.

Take `N#Cc1cccc(Cc2ccccc2C=NC(c2ccccc2)c2ccccc2)c1`: the melting point was 113 to 115 °C.

In turn, `N#CCNC(=O)C1(NC(=O)c2ccc(CBr)cc2)CCCCC1` showed a melting point of 194 to 196 °C.

Compound `CC1(C)Oc2ccc(C#N)cc2[C@@H](NC(=O)Nc2ccc3c(c2)CNC3)[C@@H]1O` returned a melting point of 215 to 217 °C.

Compound `CCCCCCOc1ccc(O)c2cc(C)c(C)cc12` came in with a melting point of 72 to 73 °C.

Turning to `Cc1cc2c(c(C)c1O)C(C)(C)CN2C(=O)C(C)(C)C`, the melting point is 143 to 144 °C.

Turning to `CCCN(CCC)C1Cn2cnc3cccc(c32)C1C` (stereo not given), the melting point fell in the range of 78 to 84 °C.

Regarding `Cc1cc(C)c2cccc(OCc3c(Cl)ccc(S(=O)(=O)N4CCC[C@H]4C(=O)NCCCNC(=O)c4cccc(C#N)c4)c3Cl)c2n1`, the melting point was in the range of 102 to 106 °C.

With `Cc1c2c(c(Cl)n1C)NC(=O)CN=C2c1ccccc1`, the melting point was 195 °C.

As for `CCOC(=O)c1c(O)c2cc(OCc3ccccc3)ccc2c(=O)n1CC(C)C`, the melting point was in the range of 92 to 93 °C.

Take `On1c(-c2ccccc2)c[nH]c1=S`: the melting point was 191 °C.

In turn, `CCCOc1ccc(C#N)cc1O` had a melting point of 99 °C.

In the case of `Cn1c(=O)n(CCC[C@@H](NS(=O)(=O)c2ccc(-c3ccccc3)cc2)C(=O)O)c(=O)c2ccccc21`, the melting point is 222 to 224 °C.

`Nc1c(F)c(F)nc(-n2cc(C(=O)O)c(=O)c3cc(F)c(F)c(Cl)c32)c1F` registered a melting point of 280 to 283 °C.

For the compound `CC1CCN2C=CC3=C(N=C12)C(c1c[nH]c2ccccc12)CC=C3` (stereo not given), the melting point was in the range of 190 to 192 °C.

In the case of `CC(C)c1cccc(C(C)C)c1NC(=O)NC1COc2ccccc2C1` (stereo not given), the melting point fell in the range of 186 to 188 °C.

In turn, `O=[N+]([O-])c1c(O)c(Cl)cc(F)c1-c1ncc(C(F)(F)F)cc1Cl` registered a melting point of 67 to 72 °C.

Regarding `COc1cccc2c1Cc1ccccc1C2(CC(=O)O)CC(=O)O`, the melting point lay in the range of 150 to 153 °C.

In turn, `COCCNc1c([N+](=O)[O-])cc(C(F)(F)F)c(Cl)c1[N+](=O)[O-]` registered a melting point of 106 to 108 °C.

Regarding `C=C(C(=O)O)c1ccc(-c2ccccc2)c(F)c1`, the melting point lay in the range of 169 to 172 °C.

Take `C=CCOc1cc(C)c(OC(C)=O)c(C)c1C`: the melting point fell in the range of 40 to 41 °C.

The compound `COc1nc2cc(Cl)c(Cl)c(-n3cnnc3-c3cccnc3)c2nc1OC` returned a melting point of 206 to 207 °C.

Regarding `O=C1CCCc2c(Cl)cccc2-c2ccccc21`, the melting point is 118 °C.

As to `O=C(Nc1ccc(-c2nc(-c3ccco3)no2)c(Cl)c1)OCC(Cl)(Cl)Cl`, the melting point is 219 to 220 °C.

`COc1nc2ccc(Br)cc2c2c1C(C)(OCC(O)Cn1ccc(-c3ccc(C(F)(F)F)cc3)n1)c1ccccc1-2` (stereo not given): the melting point was 65 to 67 °C.

As for `CC(C)NC=C1C(=O)COc2ccccc2C1=O`, the melting point fell in the range of 89 to 91 °C.

The compound `CC1CC(=O)N[C@@H]2CCc3cc(Cl)ccc3[C@@H]12` (stereo not given in full) had a melting point of 71.5 to 73 °C.

Compound `O=C(CCC(=O)N1CCC[C@H]1C(=O)O)c1ccc(Br)cc1` displayed a melting point of 138 to 139 °C.

`CC(C)c1nc(N)cc(=O)[nH]1` displayed a melting point of 229 to 230 °C.

With `CCC1SCCCN1C(=S)Nc1cccc(Cl)c1` (stereo not given), the melting point lay within 69 to 73 °C.

As for `Cc1ncnc(-c2cc([N+](=O)[O-])c(F)cc2F)c1Cl`, the melting point was 95 to 97 °C.

`COCOc1ccc(C(CS(=O)(=O)c2ccc(-c3ccc(C(F)(F)F)cc3)cc2)N(O)C=O)cc1` (stereo not given) displayed a melting point of 137 to 138 °C.

The compound `Cc1oc(-c2ccccc2)nc1CCC(=O)c1ccc(CCC2OC(=O)NC2=O)cc1` (stereo not given) yielded a melting point of 173 to 174 °C.

Compound `CCN1CC(=O)N(c2c(C(C)C)cccc2C(C)C)C1=S` gave a melting point of 159 to 161 °C.

In turn, `CCCc1c(OCCOCCOc2c(C(C)=O)ccc(OCC(=O)O)c2CCC)ccc(C(C)=O)c1O` had a melting point of 96 to 99 °C.

`O=C1CCC(c2ccccc2)(c2ccccc2)[C@@H]2CN(C(=O)CC3=CSCSC3)C[C@H]12` (racemic) came in with a melting point of 211 °C.

In turn, `CCC(=O)Nc1cscn1` displayed a melting point of 129 to 132 °C.

Take `Cc1c(C(F)(F)F)[nH]c(=O)n(-c2ccc(Br)cc2F)c1=O`: the melting point was 188 to 189 °C.

Compound `CCCCOc1ccc(-c2ccc(C)c(C#N)c2C#N)cc1` gave a melting point of 152 °C.

As to `COc1c(Br)ccc2oc(COc3ccc(-c4ccc(S(=O)(=O)NC(C(=O)O)C(C)C)cc4)cc3)c(C)c12` (stereo not given), the melting point lay within 198 to 200 °C.

In the case of `O=C(NCCC[C@H]1OC[C@H](c2cccc3cc(OCC4CC4)ccc32)CO1)Oc1ccc(Cl)cc1`, the melting point fell in the range of 159 to 162 °C.

Take `O=C1CCC(c2ccc(-c3ccc(F)cc3)o2)O1` (stereo not given): the melting point was in the range of 57 to 59 °C.

Regarding `O=C(Cc1ccc(F)cc1)c1ccccc1`, the melting point lay within 109 to 110 °C.

In turn, `COc1ccccc1N1CCN([C@H]2CC[C@H](c3ccc(-c4ccccc4)cc3)CC2)CC1` displayed a melting point of 220 to 225 °C.

Compound `Cc1ccc(Nc2c(F)cccc2C(F)(F)F)c(CC(=O)O)c1` registered a melting point of 155 to 156 °C.

In turn, `Cc1cc(C)cc(N2CCN(C(=O)NCC(c3ccccc3)c3ccccc3)CC2)c1` registered a melting point of 174 to 175 °C.

Compound `CCOC(=O)Cc1n[nH]c(=O)c2cc(Cl)c(Cl)cc12` had a melting point of 202 to 203 °C.

As to `CCCCC(CC)COc1ccc2c(-c3ccc(C=O)cc3)c3cc(OCC(CC)CCCC)ccc3c(-c3ccc(C=O)cc3)c2c1` (stereo not given), the melting point lay in the range of 125 to 127 °C.

Turning to `CC(=O)OC1CSC(Oc2cccnc2CN(C)C)C(OC(C)=O)C1OC(C)=O` (stereo not given), the melting point came to 105 °C.

In turn, `CCC(=O)Nc1cccc(NC(=O)C(C)C)c1` gave a melting point of 174 to 175 °C.

`COc1cc(CCCCCCCCCCCO)ccc1O` registered a melting point of 72 to 74 °C.

The compound `CN1C(=O)CCC2(C)c3ccc(C(c4ccccc4)c4ccccc4)cc3CCC12` (stereo not given) had a melting point of 145 to 146 °C.

Turning to `CC(C)(C)c1ccc(CCCC(O)CC2CCCCC2)cc1NC(=O)CC1c2ccccc2Oc2ccccc21` (stereo not given), the melting point lay within 157 to 158 °C.

Turning to `Cc1ccc(S(=O)(=O)NN=C2CCCCCCCC2)cc1`, the melting point was in the range of 135 to 138 °C.

`CSC(=CC(=O)c1cncc(F)c1)SC`: the melting point is 150 to 152 °C.

`Cn1cc(-c2cc3cccnc3[nH]2)c2cc(NS(C)(=O)=O)ccc21`: the melting point was in the range of 223 to 224 °C.

Turning to `CCCCN1CC2CN(c3ccc([N+](=O)[O-])cc3[N+](=O)[O-])CC(C1)C2(C)C`, the melting point was 119 °C.

Turning to `CN(C(=O)c1ccc2nonc2c1)C1CCCC1`, the melting point is 110 to 111 °C.

With `CCOC(=O)c1cc(OCC)c(C(=O)OCC)c(OCC)c1`, the melting point was in the range of 142 to 144 °C.

Consider `Cc1ccc(C(=O)Oc2c(N3CCCC3)c(=O)n(-c3ccccc3)c3ncccc23)cc1`, for which the melting point lay in the range of 216 to 217 °C.

`CCC(Cc1ccc(C(=O)OC)cc1)NCC(O)c1ccc(O)c(CO)c1` (stereo not given) registered a melting point of 64 to 67 °C.

Consider `CCOC(=O)C(=CNc1ncnc2cc(C)c(C)cc12)C(=O)OCC`, for which the melting point fell in the range of 146 to 148 °C.
